From patent US10689367B2, “Triazole pyridyl compounds as agonists of the APJ receptor” (AMGEN INC., priority 2016, dated 2020)

Molecular target: human APJ receptor (Homo sapiens (Human), UniProt P35414)
Assay: [35S]GTPγS binding assay on membranes from CHO cells stably expressing human APJ receptor
Assay type: biochemical
Conditions: membranes of CHO cells stably expressing human APJ receptor, read-out: Activity hAPJ SPA EC50 IP
Method: The human APJ receptor was cloned by polymerase chain reaction and the gene encoding the receptor was subcloned in pFLAG-CMV™-3 expression vector (Sigma, Saint Louis, Mo. USA) in-house at Amgen. A GTPγS binding assay was performed on membranes prepared from CHO cells stably expressing human APJ receptor. The optimum experimental conditions for the concentrations of GDP, MgCl2, and NaCl in the assay buffer were initially determined. […] Incubation was at RT for 90 min and the microplate was read using a ViewLux™ ultra HTS Microplate Imager (PerkinElmer, Inc.). All the results presented are means of several independent experiments and analyzed by non-linear regression methods using the commercially available program Prism (GraphPad, San Diego, Calif.) providing the EC50 values detailed in Table 27.

Chain of human APJ receptor (P35414 whole entry): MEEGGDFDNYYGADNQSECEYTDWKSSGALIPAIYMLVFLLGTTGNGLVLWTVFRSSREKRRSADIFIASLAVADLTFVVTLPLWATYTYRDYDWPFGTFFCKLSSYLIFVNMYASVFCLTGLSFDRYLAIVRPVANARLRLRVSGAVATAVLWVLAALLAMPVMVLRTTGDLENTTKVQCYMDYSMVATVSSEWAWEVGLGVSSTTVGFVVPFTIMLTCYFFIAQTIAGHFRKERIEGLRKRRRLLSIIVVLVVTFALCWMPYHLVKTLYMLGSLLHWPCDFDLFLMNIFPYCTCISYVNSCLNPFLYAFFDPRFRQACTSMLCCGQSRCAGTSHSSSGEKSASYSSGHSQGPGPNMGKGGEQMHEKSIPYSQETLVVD

COc1cccc(-c2nnc(NS(=O)(=O)[C@@H](C)[C@@H](OC(C)C)c3ncc(C)cn3)n2[C@@H](C)c2nc(C)no2)n1 (single isomer, unassigned) [Example 239.0]
EC50: 2.6 nM

COCC(COC)n1c(NS(=O)(=O)[C@@H](C)[C@@H](OC(C)C)c2ncc(OC)cn2)nnc1-c1cccc(OC)n1 [Example 172.0, (1S,2S)-N-(4-(1,3-dimethoxy-2-propanyl)-5-(6-methoxy-2-pyridinyl)-4H-1,2,4-triazol-3-yl)-1-(5-methoxy-2-pyrimidinyl)-1-(2-propanyloxy)-2-propanesulfonamide]
EC50: 1.4 nM

COc1cccc(-c2nnc(NS(=O)(=O)[C@@H](C)[C@H](C)c3ncc(Cl)cn3)n2[C@@H](C)c2noc(C)n2)n1 (single isomer, unassigned) [Example 245.0, (2S,3R)-3-(5-chloro-2-pyrimidinyl)-N-(5-(6-methoxy-2-pyridinyl)-4-((1R)-1-(5-methyl-1,2,4-oxadiazol-3-yl)ethyl)-4H-1,2,4-triazol-3-yl)-2-butanesulfonamide or (2S,3R)-3-(5-chloro-2-pyrimidinyl)-N-(5-(6-methoxy-2-pyridinyl)-4-((1S)-1-(5-methyl-1,2,4-oxadiazol-3-yl)ethyl)-4H-1,2,4-triazol-3-yl)-2-butanesulfonamide]
EC50: 7 nM

COCC(COC)n1c(NS(=O)(=O)[C@@H](C)[C@H](OC)c2ncc(Cl)cn2)nnc1-c1cccnc1 [Example 16.0]
EC50: 44 nM

COc1cccc(-c2nnc(NS(=O)(=O)[C@@H](C)[C@@H](OC(C)C)c3ncc(C)cn3)n2[C@H](C)[C@@H]2CCCCO2)n1 (single isomer, unassigned) [Example 324.0]
EC50: 0.35 nM

COC[C@@H](C)n1c(NS(=O)(=O)[C@@H](C)[C@H](OC)c2ncc(Cl)cn2)nnc1-c1cccnc1 [Example 125.0]
EC50: 90 nM

COC[C@H](C)n1c(NS(=O)(=O)[C@@H](C)[C@@H](OC(C)C)c2ncc(Cl)cn2)nnc1-c1cccc(OC)n1 [Example 179.0, (1S,2S)-1-(5-chloro-2-pyrimidinyl)-N-(4-((2S)-1-methoxy-2-propanyl)-5-(6-methoxy-2-pyridinyl)-4H-1,2,4-triazol-3-yl)-1-(2-propanyloxy)-2-propanesulfonamide]
EC50: 0.64 nM

COc1cccc(-c2nnc(NS(=O)(=O)[C@@H](C)[C@H](OC)c3ncc(Cl)cn3)n2[C@@H]2C[C@@H]2F)n1 [Example 169.0, (1R,2S)-1-(5-Chloropyrimidin-2-yl)-N-(4-((1R,2S)-2-fluorocyclopropyl)-5-(6-methoxypyridin-2-yl)-4H-1,2,4-triazol-3-yl)-1-methoxypropane-2-sulfonamide]
EC50: 20 nM

COc1cccc(-c2nnc(NS(=O)(=O)[C@@H](C)[C@H](C)c3ncc(Cl)cn3)n2[C@H](c2conc2C)C2CC2)n1 (single isomer, unassigned) [Example 229.0, (2S,3R)-3-(5-chloro-2-pyrimidinyl)-N-(4-((S)-cyclopropyl(3-methyl-1,2-oxazol-4-yl)methyl)-5-(6-methoxy-2-pyridinyl)-4H-1,2,4-triazol-3-yl)-2-butanesulfonamide or (2S,3R)-3-(5-chloro-2-pyrimidinyl)-N-(4-((R)-cyclopropyl(3-methyl-1,2-oxazol-4-yl)methyl)-5-(6-methoxy-2-pyridinyl)-4H-1,2,4-triazol-3-yl)-2-butanesulfonamide]
EC50: 1.2 nM

CC[C@@H](c1c(C)noc1C)n1c(NS(=O)(=O)[C@@H](C)[C@H](OC)c2ncc(Cl)cn2)nnc1-c1cccc(OC)n1 (single isomer, unassigned) [Example 218.0, (1R,2S)-1-(5-chloro-2-pyrimidinyl)-N-(4-((1S)-1-(3,5-dimethyl-1,2-oxazol-4-yl)propyl)-5-(6-methoxy-2-pyridinyl)-4H-1,2,4-triazol-3-yl)-1-methoxy-2-propanesulfonamide or (1R,2S)-1-(5-chloro-2-pyrimidinyl)-N-(4-((1S)-1-(3,5-dimethyl-1,2-oxazol-4-yl)propyl)-5-(6-methoxy-2-pyridinyl)-4H-1,2,4-triazol-3-yl)-1-methoxy-2-propanesulfonamide]
EC50: 3.7 nM

CC[C@H]([C@@H]1CCCCO1)n1c(NS(=O)(=O)[C@@H](C)[C@H](OC)c2ncc(C)cn2)nnc1-c1cncc(C)c1 (single isomer, unassigned) [Example 334.0]
EC50: 29 nM

COc1cccc(-c2nnc(NS(=O)(=O)[C@@H](C)[C@H](OC)c3ncc(Cl)cn3)n2[C@H](C)[C@@H]2CCCCO2)n1 (single isomer, unassigned) [Example 317.0]
EC50: 0.71 nM

COc1cc(Cn2c(NS(=O)(=O)[C@@H](C)[C@H](OC)c3cnc(C)cn3)nnc2-c2cccc(OC)n2)on1 [Example 199.0, (1R,2S)-1-methoxy-N-(4-((3-methoxy-1,2-oxazol-5-yl)methyl)-5-(6-methoxy-2-pyridinyl)-4H-1,2,4-triazol-3-yl)-1-(5-methyl-2-pyrazinyl)-2-propanesulfonamide]
EC50: 220 nM

COc1cccc(-c2nnc(NS(=O)(=O)[C@@H](C)[C@H](OC)c3ncc(Cl)cn3)n2[C@H](C)c2cnn(C)c2)n1 (single isomer, unassigned) [Example 339.0, (1R,2S)-1-(5-chloropyrimidin-2-yl)-1-methoxy-N-(5-(6-methoxypyridin-2-yl)-4-((R)-1-(1-methyl-1H-pyrazol-4-yl)ethyl)-4H-1,2,4-triazol-3-yl)propane-2-sulfonamide or (1R,2S)-1-(5-chloropyrimidin-2-yl)-1-methoxy-N-(5-(6-methoxypyridin-2-yl)-4-((S)-1-(1-methyl-1H-pyrazol-4-yl)ethyl)-4H-1,2,4-triazol-3-yl)propane-2-sulfonamide]
EC50: 3.1 nM

CC[C@@H](c1c(C)noc1C)n1c(NS(=O)(=O)[C@@H](C)[C@H](OC)c2cnc(C)cn2)nnc1-c1cccc(OC)n1 (single isomer, unassigned) [Example 223.0, (1R,2S)-N-(4-((1R)-1-(3,5-dimethyl-1,2-oxazol-4-yl)propyl)-5-(6-methoxy-2-pyridinyl)-4H-1,2,4-triazol-3-yl)-1-methoxy-1-(5-methyl-2-pyrazinyl)-2-propanesulfonamide or (1R,2S)-N-(4-((1S)-1-(3,5-dimethyl-1,2-oxazol-4-yl)propyl)-5-(6-methoxy-2-pyridinyl)-4H-1,2,4-triazol-3-yl)-1-methoxy-1-(5-methyl-2-pyrazinyl)-2-propanesulfonamide]
EC50: 32 nM

COc1cccc(-c2nnc(NS(=O)(=O)[C@@H](C)[C@H](OC)c3ncc(Cl)cn3)n2[C@H](C)[C@@H]2CCCCO2)n1 (racemic) [Example 319.0]
EC50: 0.44 nM

COc1cccc(-c2nnc(NS(=O)(=O)[C@@H](C)[C@H](OC)c3ncc(Cl)cn3)n2[C@H](C)c2cncnc2)n1 (single isomer, unassigned) [Example 336.0, (1R,2S)-1-(5-chloropyrimidin-2-yl)-1-methoxy-N-(5-(6-methoxypyridin-2-yl)-4-((R)-1-(pyrimidin-5-yl)ethyl)-4H-1,2,4-triazol-3-yl)propane-2-sulfonamide or (1R,2S)-1-(5-chloropyrimidin-2-yl)-1-methoxy-N-(5-(6-methoxypyridin-2-yl)-4-((S)-1-(pyrimidin-5-yl)ethyl)-4H-1,2,4-triazol-3-yl)propane-2-sulfonamide]
EC50: 15 nM

COc1cccc(-c2nnc(NS(=O)(=O)[C@@H](C)[C@H](OC)c3ncc(Cl)cn3)n2CCSC)n1 [Example 26.0, (1R,2S)-1-(5-chloropyrimidin-2-yl)-1-methoxy-N-(5-(6-methoxypyridin-2-yl)-4-(2-(methylthio)ethyl)-4H-1,2,4-triazol-3-yl)propane-2-sulfonamide]
EC50: 12 nM

COc1cccc(-c2nnc(NS(=O)(=O)[C@@H](C)[C@@H](OC(C)C)c3ncc(C)cn3)n2[C@@H](C)c2ccon2)n1 (single isomer, unassigned) [Example 269.0, (1S,2S)-1-isopropoxy-N-(4-((R)-1-(isoxazol-3-yl)ethyl)-5-(6-methoxypyridin-2-yl)-4H-1,2,4-triazol-3-yl)-1-(5-methylpyrimidin-2-yl)propane-2-sulfonamide or (1S,2S)-1-isopropoxy-N-(4-((S)-1-(isoxazol-3-yl)ethyl)-5-(6-methoxypyridin-2-yl)-4H-1,2,4-triazol-3-yl)-1-(5-methylpyrimidin-2-yl)propane-2-sulfonamide]
EC50: 17 nM

COCC(COC)n1c(NS(=O)(=O)[C@@H](C)[C@H](C)c2cnc(C)cn2)nnc1-c1cccc(OC)n1 [Example 102.0]
EC50: 20 nM

CCC(CC)n1c(NS(=O)(=O)[C@@H](C)[C@H](OC)c2ncc(Cl)cn2)nnc1-c1ccccn1 [Example 47.0]
EC50: 5.3 nM

CCc1cc(Cn2c(NS(=O)(=O)[C@@H](C)[C@H](C)c3ncc(Cl)cn3)nnc2-c2cccc(OC)n2)on1 [Example 196.0, (2S,3R)-3-(5-chloropyrimidin-2-yl)-N-(4-((3-ethylisoxazol-5-yl)methyl)-5-(6-methoxypyridin-2-yl)-4H-1,2,4-triazol-3-yl)butane-2-sulfonamide]
EC50: 4.8 nM

COc1cccc(-c2nnc(NS(=O)(=O)[C@@H](C)[C@H](OC)c3ncc(Cl)cn3)n2[C@H](C)c2cc(F)cc(F)c2)n1 (single isomer, unassigned) [Example 341.0, (1R,2S)-1-(5-chloropyrimidin-2-yl)-N-(4-((R)-1-(3,5-difluorophenyl)ethyl)-5-(6-methoxypyridin-2-yl)-4H-1,2,4-triazol-3-yl)-1-methoxypropane-2-sulfonamide or (1R,2S)-1-(5-chloropyrimidin-2-yl)-N-(4-((S)-1-(3,5-difluorophenyl)ethyl)-5-(6-methoxypyridin-2-yl)-4H-1,2,4-triazol-3-yl)-1-methoxypropane-2-sulfonamide]
EC50: 0.13 nM
